Test results: ChEMBL document CHEMBL2010790, “Growth inhibition and mechanism of action of p-dodecylaminophenol against refractory human pancreatic cancer and cholangiocarcinoma” (Bioorg Med Chem, 2012)
pIC50: −log10 of the molar value. Values belong to the compound of their own block, whether it stands above or below them. The source made the active and inactive calls. No cut-off for these calls is given here.

What was measured:
MIA PaCa-2 [1] = experiment: Growth inhibition of human MIAPaCa2 cells at 10 uM after 72 hrs by MTT assay relative to control; assay type: functional; details: for inhibition of growth at 10 µM: MIA PaCa-2, 72 h, read-out: GI
[2] = Growth inhibition of human HuCCT1 cells at 4 uM after 72 hrs by MTT assay relative to control; assay type: functional; details: HuCCT-1, 72 h, read-out: GI
HuCCT-1 [3] = experiment: (§1) Cytotoxicity against human HuCCT1 cells after 72 hrs by MTT assay; assay type: functional, cell-based
MIA PaCa-2 [4] = experiment: Growth inhibition of human MIAPaCa2 cells at 4 uM after 72 hrs by MTT assay relative to control; assay type: functional; details: MIA PaCa-2, 72 h, read-out: GI
HuCCT-1 [5] = experiment: (§2) Growth inhibition of human HuCCT1 cells at 10 uM after 72 hrs by MTT assay relative to control; assay type: functional
MIA PaCa-2 [6] = experiment: Cytotoxicity against human MIAPaCa2 cells after 72 hrs by MTT assay; assay type: functional, cell-based; details: MIA PaCa-2, 72 h
[7] = as §1; assay type: functional, cell-based; details: HuCCT-1, 72 h
MIA PaCa-2 [8] = experiment: Downregulation of K-ras in human MIAPaCa2 cells at 10 uM after 72 hrs by agarose gel electrophoresis; assay type: functional, cell-based
MIA PaCa-2 [9] = experiment: Downregulation of K-ras in human MIAPaCa2 cells at 7 uM after 72 hrs by agarose gel electrophoresis; assay type: functional, cell-based
[10] = Downregulation of K-ras in human HuCCT1 cells at 2 uM after 72 hrs by agarose gel electrophoresis; assay type: functional, cell-based; details: HuCCT-1
[11] = Downregulation of K-ras in human HuCCT1 cells at 6 uM after 72 hrs by agarose gel electrophoresis; assay type: functional, cell-based; details: HuCCT-1
[12] = Downregulation of H-ras in human HuCCT1 cells at 6 uM after 72 hrs by agarose gel electrophoresis; assay type: functional, cell-based; details: HuCCT-1
MIA PaCa-2 [13] = experiment: Inhibition of ERK phosphorylation in human MIAPaCa2 cells assessed as reduction in phospho-ERK levels at 7 uM after 48 hrs by immunoblotting; assay type: cell-based
MIA PaCa-2 [14] = experiment: Inhibition of Akt phosphorylation in human MIAPaCa2 cells assessed as effect on […] at 7 uM after 48 hrs by immunoblotting; assay type: cell-based
HuCCT1 [15] = experiment: Inhibition of ERK phosphorylation in human HuCCT1 cells assessed as reduction in phospho-ERK levels at 6 uM after 48 hrs by immunoblotting; assay type: cell-based
HuCCT1 [16] = experiment: Inhibition of Akt phosphorylation in human HuCCT1 cells assessed as reduction in phospho-Akt levels at 6 uM after 48 hrs by immunoblotting; assay type: cell-based
MIA PaCa-2 [17] = experiment: Induction of apoptosis in human MIAPaCa2 cells after 72 hrs; assay type: functional, cell-based
HuCCT-1 [18] = experiment: Induction of apoptosis in human HuCCT1 cells after 72 hrs; assay type: functional, cell-based
[19] = as §2; assay type: functional; details: HuCCT-1, 72 h, read-out: GI
MIA PaCa-2 [20] = experiment: Growth inhibition of human MIAPaCa2 cells at 1 uM after 72 hrs by MTT assay; assay type: functional; details: MIA PaCa-2, 72 h, read-out: GI
MIA PaCa-2 [21] = experiment: Cellular uptake in human MIAPaCa2 cells at 10 uM up to 30 mins by HPLC analysis; assay type: ADME, cell-based; details: mia paca-2, 0.5 h
[22] = Cellular uptake in human HuCCT1 cells at 10 uM up to 30 mins by HPLC analysis; assay type: ADME, cell-based; details: hucct-1, 0.5 h
[23] = Cellular uptake in human HuCCT1 cells at 10 uM measured after 30 mins up to 60 mins; assay type: ADME, cell-based; details: hucct-1, 10 µM
Nucleic Acid = experiment: Ratio of drug level in human MIAPaCa2 cells to human HuCCT1 cells at 30 mins; assay type: ADME, cell-based; details: mia paca-2, 0.5 h
[24] = Downregulation of H-ras in human HuCCT1 cells at 2 uM after 72 hrs by agarose gel electrophoresis; assay type: functional, cell-based; details: HuCCT-1
[25] = Downregulation of N-ras in human HuCCT1 cells at 2 uM after 72 hrs by agarose gel electrophoresis; assay type: functional, cell-based; details: HuCCT-1
MIA PaCa-2 [26] = experiment: Inhibition of ERK phosphorylation in human MIAPaCa2 cells assessed as reduction in phospho-ERK levels at 10 uM after 48 hrs by immunoblotting; assay type: cell-based
HuCCT1 [27] = experiment: Inhibition of ERK phosphorylation in human HuCCT1 cells assessed as reduction in phospho-ERK levels at 2 uM after 48 hrs by immunoblotting; assay type: cell-based
HuCCT1 [28] = experiment: Inhibition of Akt phosphorylation in human HuCCT1 cells assessed as reduction in phospho-Akt levels at 2 uM after 48 hrs by immunoblotting; assay type: cell-based
MIA PaCa-2 [29] = experiment: Inhibition of Akt phosphorylation in human MIAPaCa2 cells assessed as effect on […] at 10 uM after 48 hrs by immunoblotting; assay type: cell-based
[30] = Growth inhibition of human HuCCT1 cells at 1 uM after 72 hrs by MTT assay relative to control; assay type: functional; details: HuCCT-1, 72 h, read-out: GI

Structure (SMILES): CCCCCCCCCCNc1ccc(O)cc1
inhibition of growth at 10 µM (MIA PaCa-2 [1]): 55%
inhibition of growth at 4 µM [2]: 82%
growth inhibition (GI) (HuCCT-1 [3]): Dose-dependent effect

Structure (SMILES): CC1=C(/C=C/C(C)=C/C=C/C(C)=C/C(=O)Nc2ccc(O)cc2)C(C)(C)CCC1 [FENRETINIDE]
inhibition of growth at 4 µM (MIA PaCa-2 [4]): 8%
growth inhibition (GI) (MIA PaCa-2 [1]): Active
inhibition of growth at 4 µM [2]: 17%
growth inhibition (GI) (HuCCT-1 [5]): Active
pIC50 (MIA PaCa-2 [6]): 5.15
pIC50 [7]: 5.22
growth inhibition (GI) (HuCCT-1 [3]): Dose-dependent effect
Activity (MIA PaCa-2 [8]): Active
Activity (MIA PaCa-2 [9]): Active
Activity [10]: Active
Activity [11]: Active
Activity [12]: Active
inhibition (MIA PaCa-2 [13]): inactive
inhibition (MIA PaCa-2 [14]): 30%
inhibition (HuCCT1 [15]): inactive
inhibition (HuCCT1 [16]): inactive
Activity (MIA PaCa-2 [17]): inactive
Activity (HuCCT-1 [18]): inactive

Structure (SMILES): CCCCCCCCCC(=O)Nc1ccc(O)cc1
inhibition of growth at 10 µM (MIA PaCa-2 [1]): 0%
inhibition of growth at 4 µM [2]: 23%
growth inhibition (GI) (HuCCT-1 [3]): Dose-dependent effect

Structure (SMILES): CC1=C(/C=C/C(C)=C/C=C/C(C)=C/C(=O)O)C(C)(C)CCC1 [TRETINOIN]
inhibition of growth at 4 µM (MIA PaCa-2 [4]): 15%
inhibition of growth at 10 µM (MIA PaCa-2 [1]): 18%
inhibition of growth at 4 µM [2]: 17%
inhibition of growth at 10 µM [19]: 28%

Drug uptake (MIA PaCa-2 [21]): Active
Drug uptake [22]: Active
Drug uptake [23]: Not Active
Ratio (Nucleic Acid): 1.8
Structure (SMILES): CCCCCCCCCCCCNc1ccc(O)cc1
inhibition of growth at 4 µM (MIA PaCa-2 [4]): 45%
inhibition of growth at 10 µM (MIA PaCa-2 [1]): 50%
inhibition of growth at 4 µM [2]: 82%
inhibition of growth at 10 µM [19]: 84%
inhibition of growth at 1 µM (MIA PaCa-2 [20]): 20%
pIC50 (MIA PaCa-2 [6]): 5.00
pIC50 [7]: 5.70
growth inhibition (GI) (HuCCT-1 [3]): Dose-dependent effect
Activity (MIA PaCa-2 [8]): Active
Activity (MIA PaCa-2 [9]): Active
Activity [10]: Active
Activity [11]: Active
Activity [24]: Active
Activity [25]: Active
inhibition (MIA PaCa-2 [26]): 50%
inhibition (HuCCT1 [27]): 21%
inhibition (HuCCT1 [28]): 20%
inhibition (MIA PaCa-2 [29]): inactive
inhibition of growth at 1 µM [30]: 35%
Activity (MIA PaCa-2 [17]): inactive
Activity (HuCCT-1 [18]): inactive

Structure (SMILES): CCCCCCCCCCCC(=O)Nc1ccc(O)cc1
inhibition of growth at 10 µM (MIA PaCa-2 [1]): 0%
inhibition of growth at 4 µM [2]: 23%
growth inhibition (GI) (HuCCT-1 [3]): Dose-dependent effect
